In PubChem BioAssay AID328 (DTP/NCI, 2004):
“And” between values parts separate entries of the source, which are not always exact repeats. Equal entries are not always repeated. Toxic doses and inconclusive results are not listed.

Test system: BDF1 mice, P388 leukemia ip, median survival T/C
Experiment: NCI In Vivo Anticancer Drug Screen. Data for tumor model P388 Leukemia (intraperitoneal) in B6D2F1 (BDF1) mice
Details: endpoint: median survival time, higher = longer survival
In short: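 Antitumour effect was judged in vivo: survival in drug-treated mice, normalised to that of vehicle-dosed controls, gives the reported T/C.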

[1] = dose: 6.25 mg/kg/injection, schedule: Q01DX009 (ip), vehicle: saline with Tween-80
[2] = dose: 12.5 mg/kg/injection, schedule: Q01DX009 (ip), vehicle: saline with Tween-80
[3] = dose: 25.0 mg/kg/injection, schedule: Q01DX009 (ip), vehicle: saline with Tween-80
[4] = dose: 50.0 mg/kg/injection, schedule: Q01DX009 (ip), vehicle: saline with Tween-80
[5] = dose: 100.0 mg/kg/injection, schedule: Q01DX009 (ip), vehicle: saline with Tween-80
[6] = dose: 50.0 mg/kg/injection, schedule: Q01DX009 (ip), vehicle: Klucel (hydroxypropylcellulose) (HPC)
[7] = dose: 100.0 mg/kg/injection, schedule: Q01DX009 (ip), vehicle: Klucel (hydroxypropylcellulose) (HPC)
[8] = dose: 100.0 mg/kg/injection, schedule: Q04DX003 (ip), vehicle: Klucel (hydroxypropylcellulose) (HPC)
[9] = dose: 200.0 mg/kg/injection, schedule: Q01DX009 (ip), vehicle: Klucel (hydroxypropylcellulose) (HPC)
[10] = dose: 400.0 mg/kg/injection, schedule: Q01DX009 (ip), vehicle: Klucel (hydroxypropylcellulose) (HPC)
[11] = dose: 400.0 mg/kg/injection, schedule: Q04DX003 (ip), vehicle: Klucel (hydroxypropylcellulose) (HPC)
[12] = dose: 100.0 mg/kg/injection, schedule: Q04DX003 (ip), vehicle: saline with Tween-80
[13] = dose: 200.0 mg/kg/injection, schedule: Q04DX003 (ip), vehicle: saline with Tween-80
[14] = dose: 200.0 mg/kg/injection, schedule: Q01DX009 (ip), vehicle: saline with Tween-80

Compound: O=c1cc(N=Nc2ccc(O)cc2)[nH]c(=O)[nH]1
- T/C (dose: 25.0 mg/kg/injection, schedule: Q01DX009 (ip), vehicle: water): 100 % of control
- T/C (dose: 50.0 mg/kg/injection, schedule: Q01DX009 (ip), vehicle: water): 106 % of control
- T/C (dose: 50.0 mg/kg/injection, schedule: Q04DX003 (ip), vehicle: water): 104 % of control and 107 % of control
- T/C (dose: 100.0 mg/kg/injection, schedule: Q01DX009 (ip), vehicle: water): 106 % of control
- T/C (dose: 100.0 mg/kg/injection, schedule: Q04DX003 (ip), vehicle: water): 93 % of control and 98 % of control
- T/C (dose: 200.0 mg/kg/injection, schedule: Q01DX009 (ip), vehicle: water): 114 % of control
- T/C (dose: 200.0 mg/kg/injection, schedule: Q04DX003 (ip), vehicle: water): 98 % of control and 102 % of control and 117 % of control
- T/C (dose: 400.0 mg/kg/injection, schedule: Q01DX009 (ip), vehicle: water): 100 % of control
- T/C (dose: 400.0 mg/kg/injection, schedule: Q04DX003 (ip), vehicle: water): 109 % of control and 111 % of control and 117 % of control

Compound: COc1ccc(C2=NC(c3ccccc3)NC(c3ccccc3)/C2=C/c2ccccc2)cc1 (stereo unspecified)
- T/C [1]: 106 % of control
- T/C [2]: 99 % of control
- T/C [3]: 99 % of control
- T/C [4]: 91 % of control and 94 % of control
- T/C [5]: 95 % of control

Compound: CCOC(=O)c1ccc(NC(=O)CCl)cc1
- T/C (dose: 6.25 mg/kg/injection, schedule: Q01DX010 (ip), vehicle: saline): 104 % of control
- T/C (dose: 12.5 mg/kg/injection, schedule: Q01DX010 (ip), vehicle: saline): 100 % of control
- T/C (dose: 25.0 mg/kg/injection, schedule: Q01DX010 (ip), vehicle: saline): 100 % of control
- T/C (dose: 50.0 mg/kg/injection, schedule: Q01DX010 (ip), vehicle: saline): 100 % of control

Compound: Cc1ccc(CCO)c(C)c1
- T/C [6]: 95 % of control
- T/C [7]: 109 % of control
- T/C [8]: 100 % of control
- T/C [9]: 90 % of control
- T/C (dose: 200.0 mg/kg/injection, schedule: Q04DX003 (ip), vehicle: Klucel (hydroxypropylcellulose) (HPC)): 90 % of control
- T/C [10]: 113 % of control
- T/C [11]: 100 % of control

Compound: C(=NCCc1ccccc1)c1ccccc1B1OB(c2ccccc2C=NCCc2ccccc2)OB(c2ccccc2C=NCCc2ccccc2)O1
- T/C [7]: 88 % of control
- T/C [8]: 100 % of control
- T/C [9]: 105 % of control
- T/C [10]: 88 % of control
- T/C [11]: 91 % of control

Compound: COC1CC(N=[N+]=[N-])C(OS(C)(=O)=O)C(C)O1 (stereo unspecified)
- T/C [12]: 101 % of control
- T/C [13]: 102 % of control
- T/C (dose: 400.0 mg/kg/injection, schedule: Q04DX003 (ip), vehicle: saline with Tween-80): 101 % of control

Compound: CC(CCC/C=C/CCCN(C)C(=N)N)CC(C)C1OC(=O)C(C)C(O)/C=C/C(C)C(O)C(C)C(O)C(C)C(O)CCCC(O)CC2(O)OC(CC(OC(=O)CC(=O)O)CC(O)CC(O)C(C)C(O)/C=C/C=C/C1C)CC(O)C2O (stereo unspecified)
- T/C (dose: 1.8 mg/kg/injection, schedule: Q01DX009 (ip), vehicle: saline with Tween-80): 124 % of control
- T/C (dose: 1.82 mg/kg/injection, schedule: Q04DX003 (ip), vehicle: saline): 90 % of control
- T/C (dose: 2.5 mg/kg/injection, schedule: Q01DX001 (ip), vehicle: saline): 109 % of control
- T/C (dose: 3.65 mg/kg/injection, schedule: Q01DX009 (ip), vehicle: saline with Tween-80): 116 % of control
- T/C (dose: 3.65 mg/kg/injection, schedule: Q04DX003 (ip), vehicle: saline): 109 % of control
- T/C (dose: 5.0 mg/kg/injection, schedule: Q01DX001 (ip), vehicle: saline): 100 % of control
- T/C (dose: 7.3 mg/kg/injection, schedule: Q01DX009 (ip), vehicle: saline with Tween-80): 104 % of control
- T/C (dose: 7.3 mg/kg/injection, schedule: Q04DX003 (ip), vehicle: saline): 104 % of control
- T/C (dose: 10.0 mg/kg/injection, schedule: Q01DX001 (ip), vehicle: saline): 109 % of control
- T/C (dose: 10.0 mg/kg/injection, schedule: Q04DX003 (ip), vehicle: saline): 100 % of control

Compound: Nc1nc(CCl)nc(Nc2ccccc2)n1
- T/C (dose: 12.5 mg/kg/injection, schedule: Q01DX009 (ip), vehicle: Klucel (hydroxypropylcellulose) (HPC)): 100 % of control
- T/C (dose: 25.0 mg/kg/injection, schedule: Q01DX009 (ip), vehicle: Klucel (hydroxypropylcellulose) (HPC)): 98 % of control
- T/C [6]: 102 % of control
- T/C [7]: 100 % of control

Compound: O=C1Nc2ccc(Br)cc2C1=Nc1ccc(Cl)cc1
- T/C [4]: 101 % of control
- T/C [5]: 105 % of control
- T/C [14]: 118 % of control

Compound: COCCCNC1=C(Cl)C(=O)c2ccccc2C1=O
- T/C [6]: 106 % of control
- T/C [7]: 113 % of control
- T/C [9]: 109 % of control

Compound: Cc1ccc2c(Nc3ccc(NS(C)(=O)=O)cc3)c3ccccc3nc2c1C
- T/C (dose: 1.78 mg/kg/injection, schedule: Q01DX009 (ip), vehicle: saline with Tween-80): 156 % of control
- T/C (dose: 4.0 mg/kg/injection, schedule: Q01DX009 (ip), vehicle: saline with Tween-80): 167 % of control
- T/C (dose: 5.56 mg/kg/injection, schedule: Q01DX009 (ip), vehicle: saline with Tween-80): 196 % of control
- T/C (dose: 6.0 mg/kg/injection, schedule: Q01DX009 (ip), vehicle: saline with Tween-80): 187 % of control
- T/C [1]: 185 % of control
- T/C (dose: 8.33 mg/kg/injection, schedule: Q01DX009 (ip), vehicle: saline with Tween-80): 186 % of control
- T/C (dose: 8.8 mg/kg/injection, schedule: Q04DX003 (ip), vehicle: saline with Tween-80): 118 % of control
- T/C [2]: 233 % of control and 247 % of control
- T/C (dose: 13.2 mg/kg/injection, schedule: Q04DX003 (ip), vehicle: saline with Tween-80): 154 % of control
- T/C (dose: 18.7 mg/kg/injection, schedule: Q01DX009 (ip), vehicle: saline with Tween-80): 288 % of control
- T/C (dose: 20.0 mg/kg/injection, schedule: Q01DX009 (ip), vehicle: other): 219 % of control
- T/C (dose: 20.0 mg/kg/injection, schedule: Q04DX003 (ip), vehicle: saline with Tween-80): 168 % of control
- T/C (dose: 22.0 mg/kg/injection, schedule: Q04DX003 (ip), vehicle: saline with Tween-80): 186 % of control
- T/C [3]: 114 % of control
- T/C (dose: 30.0 mg/kg/injection, schedule: Q04DX003 (ip), vehicle: saline with Tween-80): 177 % of control
- T/C (dose: 33.0 mg/kg/injection, schedule: Q04DX003 (ip), vehicle: saline with Tween-80): 227 % of control
- T/C (dose: 50.0 mg/kg/injection, schedule: Q04DX003 (ip), vehicle: saline with Tween-80): 231 % of control
- T/C (dose: 75.0 mg/kg/injection, schedule: Q04DX003 (ip), vehicle: saline with Tween-80): 218 % of control
- T/C [12]: 259 % of control
- T/C [13]: 272 % of control

Compound: CCC(C(=O)O)C(=O)O.[NH-]CC[NH-].[Pt+2]
- T/C (dose: 25.0 mg/kg/injection, schedule: Q04DX003 (ip), vehicle: saline): 100 % of control
- T/C (dose: 33.0 mg/kg/injection, schedule: Q04DX003 (ip), vehicle: saline): 118 % of control
- T/C (dose: 50.0 mg/kg/injection, schedule: Q04DX003 (ip), vehicle: saline): 154 % of control

Compound: CN(C)Nc1ncnc2nc[nH]c12
- T/C (dose: 50.0 mg/kg/injection, schedule: Q01DX009 (ip), vehicle: saline): 95 % of control
- T/C (dose: 100.0 mg/kg/injection, schedule: Q01DX009 (ip), vehicle: saline): 91 % of control
- T/C [12]: 100 % of control
- T/C [13]: 114 % of control

Compound: O=C/C=C/c1cccc([N+](=O)[O-])c1
- T/C [3]: 110 % of control
- T/C [4]: 115 % of control
- T/C [5]: 119 % of control

Compound: O=C(CBr)CC(=O)Nc1ccccc1
- T/C [2]: 100 % of control

Compound: CCCCCC(=O)c1ccc(OCCCN2CCN(C(=O)OCC)CC2)cc1
- T/C [5]: 105 % of control
- T/C [14]: 104 % of control
